Assay results reported in ChEMBL document CHEMBL5465560, “Selectivity Literature for EUbOPEN Chemogenomic Library” (2024).
Values belong to the compound of their own block, whether it stands above or below them.

Columns and labels:
[1] = molecular target: Ribosomal protein S6 kinase alpha-2 (Homo sapiens) (UniProt Q15349); test: Selectivity interaction (Kinase panel (Z-LYTE Assay)) EUB0001632a RPS6KA2; conditions: at 10 µM
[2] = molecular target: T1, 3-phosphoinositide-dependent protein kinase 1 (Homo sapiens) (UniProt O15530); test: Selectivity interaction (KinomeScan (DiscoverX)) EUB0000695a PDPK1; conditions: at 100 nM
T1 sequence (whole entry): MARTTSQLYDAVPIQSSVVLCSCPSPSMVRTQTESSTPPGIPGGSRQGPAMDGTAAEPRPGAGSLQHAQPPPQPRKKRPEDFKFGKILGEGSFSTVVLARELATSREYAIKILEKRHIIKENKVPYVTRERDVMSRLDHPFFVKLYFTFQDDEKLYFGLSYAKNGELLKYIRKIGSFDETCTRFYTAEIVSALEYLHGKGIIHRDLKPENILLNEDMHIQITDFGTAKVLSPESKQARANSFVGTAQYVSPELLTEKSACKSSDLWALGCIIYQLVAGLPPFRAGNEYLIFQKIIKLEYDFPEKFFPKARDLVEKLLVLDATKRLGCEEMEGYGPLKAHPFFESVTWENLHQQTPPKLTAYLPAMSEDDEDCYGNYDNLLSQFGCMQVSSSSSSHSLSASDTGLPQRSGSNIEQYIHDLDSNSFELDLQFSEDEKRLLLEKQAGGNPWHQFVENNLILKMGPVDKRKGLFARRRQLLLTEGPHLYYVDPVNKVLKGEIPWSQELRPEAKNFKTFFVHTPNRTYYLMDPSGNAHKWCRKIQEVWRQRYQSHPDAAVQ

[3] = molecular target: RAC-beta serine/threonine-protein kinase (Homo sapiens) (UniProt P31751); test: Selectivity interaction (Ambit KINOMEscan and KiNATiv profiling in Jurkat cells) EUB0000090b AKT2; assay type: cell-based; conditions: at 1 µM
Sequence of RAC-beta serine/threonine-protein kinase (Homo sapiens) (P31751 whole entry): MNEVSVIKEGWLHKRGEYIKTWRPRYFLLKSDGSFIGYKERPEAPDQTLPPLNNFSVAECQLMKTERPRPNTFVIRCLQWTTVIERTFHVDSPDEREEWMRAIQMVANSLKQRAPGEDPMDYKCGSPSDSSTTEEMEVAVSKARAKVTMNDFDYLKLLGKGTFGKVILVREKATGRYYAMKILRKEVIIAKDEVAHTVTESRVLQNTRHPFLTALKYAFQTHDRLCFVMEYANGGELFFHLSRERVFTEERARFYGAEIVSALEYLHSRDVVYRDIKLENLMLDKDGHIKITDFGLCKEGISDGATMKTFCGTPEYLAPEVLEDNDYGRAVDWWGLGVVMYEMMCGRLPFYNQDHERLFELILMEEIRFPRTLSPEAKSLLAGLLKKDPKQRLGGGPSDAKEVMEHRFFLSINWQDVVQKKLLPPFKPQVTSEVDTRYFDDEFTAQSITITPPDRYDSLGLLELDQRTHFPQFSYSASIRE

[4] = molecular target: Serine/threonine-protein kinase MRCK alpha (Homo sapiens) (UniProt Q5VT25); test: Selectivity interaction (Kinase panel (DSF assay)) EUB0001558a CDC42BPA
Sequence of Serine/threonine-protein kinase MRCK alpha (Homo sapiens) (Q5VT25 whole entry): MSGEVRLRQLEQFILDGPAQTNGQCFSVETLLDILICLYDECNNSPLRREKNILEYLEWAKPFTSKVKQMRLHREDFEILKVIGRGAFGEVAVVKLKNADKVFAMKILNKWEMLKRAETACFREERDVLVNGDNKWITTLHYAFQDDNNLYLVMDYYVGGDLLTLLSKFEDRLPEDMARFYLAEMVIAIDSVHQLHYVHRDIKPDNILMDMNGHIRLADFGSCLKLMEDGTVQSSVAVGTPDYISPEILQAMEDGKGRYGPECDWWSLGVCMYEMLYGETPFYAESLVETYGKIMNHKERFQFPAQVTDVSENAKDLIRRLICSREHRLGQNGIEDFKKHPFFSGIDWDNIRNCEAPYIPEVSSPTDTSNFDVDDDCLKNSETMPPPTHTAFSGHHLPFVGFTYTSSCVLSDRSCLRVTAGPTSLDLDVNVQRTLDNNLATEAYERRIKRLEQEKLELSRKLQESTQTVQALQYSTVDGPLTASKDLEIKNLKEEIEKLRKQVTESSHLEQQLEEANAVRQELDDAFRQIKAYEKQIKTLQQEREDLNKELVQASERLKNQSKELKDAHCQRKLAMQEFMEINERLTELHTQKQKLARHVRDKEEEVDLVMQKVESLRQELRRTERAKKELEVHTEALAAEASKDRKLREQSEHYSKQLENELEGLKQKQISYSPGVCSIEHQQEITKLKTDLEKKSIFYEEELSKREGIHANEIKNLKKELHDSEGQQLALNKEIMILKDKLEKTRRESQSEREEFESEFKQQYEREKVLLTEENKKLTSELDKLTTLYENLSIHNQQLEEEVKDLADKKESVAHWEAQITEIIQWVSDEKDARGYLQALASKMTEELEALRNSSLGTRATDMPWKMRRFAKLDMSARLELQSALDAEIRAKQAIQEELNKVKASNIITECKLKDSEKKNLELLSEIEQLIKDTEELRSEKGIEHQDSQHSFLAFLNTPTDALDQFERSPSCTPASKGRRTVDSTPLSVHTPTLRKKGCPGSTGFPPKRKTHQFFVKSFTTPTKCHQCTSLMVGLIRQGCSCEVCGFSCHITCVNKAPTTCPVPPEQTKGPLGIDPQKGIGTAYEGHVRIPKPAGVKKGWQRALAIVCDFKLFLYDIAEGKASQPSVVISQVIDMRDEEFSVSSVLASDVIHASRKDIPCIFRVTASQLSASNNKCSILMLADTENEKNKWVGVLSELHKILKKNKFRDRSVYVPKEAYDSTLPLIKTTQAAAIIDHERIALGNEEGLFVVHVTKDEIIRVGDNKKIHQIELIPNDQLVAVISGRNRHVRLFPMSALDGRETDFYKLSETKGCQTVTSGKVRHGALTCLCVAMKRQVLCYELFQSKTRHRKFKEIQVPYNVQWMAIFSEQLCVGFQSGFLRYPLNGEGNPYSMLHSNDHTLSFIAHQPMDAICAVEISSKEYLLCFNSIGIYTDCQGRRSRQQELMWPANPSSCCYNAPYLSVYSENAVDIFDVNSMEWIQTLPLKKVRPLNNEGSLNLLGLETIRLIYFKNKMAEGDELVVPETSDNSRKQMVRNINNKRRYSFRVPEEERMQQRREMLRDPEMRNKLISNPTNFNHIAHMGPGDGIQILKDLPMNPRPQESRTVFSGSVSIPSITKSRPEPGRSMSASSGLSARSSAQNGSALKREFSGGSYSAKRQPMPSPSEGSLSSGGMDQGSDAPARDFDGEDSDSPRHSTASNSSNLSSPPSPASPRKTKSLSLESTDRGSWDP

[5] = molecular target: T2, Mitogen-activated protein kinase kinase kinase kinase 2 (Homo sapiens) (UniProt Q12851); test: Selectivity interaction (KinomeScan (DiscoverX)) EUB0000229b MAP4K2; conditions: at 10 µM
T2 sequence (whole entry): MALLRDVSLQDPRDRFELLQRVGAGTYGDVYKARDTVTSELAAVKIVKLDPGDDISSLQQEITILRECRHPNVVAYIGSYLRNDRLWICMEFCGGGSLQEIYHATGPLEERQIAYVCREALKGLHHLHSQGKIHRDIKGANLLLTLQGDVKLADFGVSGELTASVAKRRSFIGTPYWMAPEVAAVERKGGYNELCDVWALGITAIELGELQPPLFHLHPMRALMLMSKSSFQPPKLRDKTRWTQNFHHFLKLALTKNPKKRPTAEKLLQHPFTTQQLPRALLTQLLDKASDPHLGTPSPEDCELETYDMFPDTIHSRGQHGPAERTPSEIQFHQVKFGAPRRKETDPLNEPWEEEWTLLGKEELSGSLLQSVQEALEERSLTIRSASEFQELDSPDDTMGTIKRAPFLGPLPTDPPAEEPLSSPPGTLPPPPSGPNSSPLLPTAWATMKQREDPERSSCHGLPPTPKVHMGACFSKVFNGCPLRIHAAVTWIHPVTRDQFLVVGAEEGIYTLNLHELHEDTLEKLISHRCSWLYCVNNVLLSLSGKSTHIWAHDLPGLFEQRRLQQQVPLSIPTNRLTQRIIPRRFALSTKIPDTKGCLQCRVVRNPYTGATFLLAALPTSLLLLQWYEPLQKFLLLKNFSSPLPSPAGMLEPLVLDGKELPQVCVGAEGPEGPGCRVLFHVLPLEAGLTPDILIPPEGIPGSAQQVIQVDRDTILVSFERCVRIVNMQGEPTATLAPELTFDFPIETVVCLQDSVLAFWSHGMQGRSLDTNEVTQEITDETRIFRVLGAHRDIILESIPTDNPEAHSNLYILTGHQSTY

[6] = molecular target: T3, Tyrosine-protein kinase JAK3 (Homo sapiens) (UniProt P52333); test: Selectivity interaction (KinomeScan (DiscoverX)) EUB0001619a JAK3; conditions: at 1 µM
T3 sequence (whole entry): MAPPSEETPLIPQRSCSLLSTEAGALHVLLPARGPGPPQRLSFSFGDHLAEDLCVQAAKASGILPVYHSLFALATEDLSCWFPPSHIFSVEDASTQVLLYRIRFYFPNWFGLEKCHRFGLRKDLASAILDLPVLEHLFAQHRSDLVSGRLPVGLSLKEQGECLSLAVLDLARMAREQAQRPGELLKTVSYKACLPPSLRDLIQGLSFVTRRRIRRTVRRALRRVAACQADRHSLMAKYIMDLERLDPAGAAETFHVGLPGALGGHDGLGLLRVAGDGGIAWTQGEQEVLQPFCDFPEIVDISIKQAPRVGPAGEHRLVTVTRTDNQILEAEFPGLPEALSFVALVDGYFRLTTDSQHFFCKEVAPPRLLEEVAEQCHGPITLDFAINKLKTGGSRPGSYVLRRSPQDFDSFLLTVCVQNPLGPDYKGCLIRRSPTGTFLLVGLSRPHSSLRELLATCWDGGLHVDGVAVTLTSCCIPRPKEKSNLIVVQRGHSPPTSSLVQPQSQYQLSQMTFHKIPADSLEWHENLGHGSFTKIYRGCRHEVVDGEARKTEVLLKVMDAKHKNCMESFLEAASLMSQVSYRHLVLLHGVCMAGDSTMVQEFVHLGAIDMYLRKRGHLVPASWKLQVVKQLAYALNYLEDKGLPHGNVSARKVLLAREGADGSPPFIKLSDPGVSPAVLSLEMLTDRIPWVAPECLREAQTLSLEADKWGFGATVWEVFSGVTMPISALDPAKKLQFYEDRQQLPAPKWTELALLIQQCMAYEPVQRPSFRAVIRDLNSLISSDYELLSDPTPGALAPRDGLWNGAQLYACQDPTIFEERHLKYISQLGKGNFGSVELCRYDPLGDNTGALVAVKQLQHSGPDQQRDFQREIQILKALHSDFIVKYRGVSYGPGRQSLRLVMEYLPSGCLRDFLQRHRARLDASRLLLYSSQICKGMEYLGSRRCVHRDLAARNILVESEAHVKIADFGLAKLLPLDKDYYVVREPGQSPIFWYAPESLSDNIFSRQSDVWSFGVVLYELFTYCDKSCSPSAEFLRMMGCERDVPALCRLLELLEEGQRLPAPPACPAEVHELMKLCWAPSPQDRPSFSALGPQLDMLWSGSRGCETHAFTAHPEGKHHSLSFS

Sequence of Ribosomal protein S6 kinase alpha-2 (Homo sapiens) (Q15349 whole entry): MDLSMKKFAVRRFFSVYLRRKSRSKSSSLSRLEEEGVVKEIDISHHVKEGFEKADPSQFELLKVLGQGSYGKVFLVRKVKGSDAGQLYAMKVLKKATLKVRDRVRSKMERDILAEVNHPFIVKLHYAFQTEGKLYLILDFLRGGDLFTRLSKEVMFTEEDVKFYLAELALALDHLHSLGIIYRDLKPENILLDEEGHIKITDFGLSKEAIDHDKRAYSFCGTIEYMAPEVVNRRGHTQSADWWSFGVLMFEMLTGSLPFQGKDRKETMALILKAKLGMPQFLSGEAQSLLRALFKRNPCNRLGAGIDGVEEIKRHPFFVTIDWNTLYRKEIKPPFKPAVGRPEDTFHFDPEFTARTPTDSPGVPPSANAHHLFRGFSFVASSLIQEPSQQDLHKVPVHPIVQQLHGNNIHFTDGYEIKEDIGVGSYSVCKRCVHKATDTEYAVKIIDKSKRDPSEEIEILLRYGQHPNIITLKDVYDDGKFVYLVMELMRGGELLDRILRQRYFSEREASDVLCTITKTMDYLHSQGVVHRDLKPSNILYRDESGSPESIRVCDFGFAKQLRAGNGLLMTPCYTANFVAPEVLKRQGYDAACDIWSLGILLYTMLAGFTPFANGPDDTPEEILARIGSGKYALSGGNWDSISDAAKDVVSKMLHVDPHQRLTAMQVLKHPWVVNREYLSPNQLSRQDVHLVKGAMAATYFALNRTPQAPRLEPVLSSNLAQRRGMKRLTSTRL

% of control [1]: 1.22%
Compound: Cn1cc(-n2cnc3c(NCc4nc5cc(Cl)c(Cl)cc5[nH]4)nc(N4CCOCC4)nc32)cn1

Compound: Cc1cc(F)c(C(=O)Nc2cccc(-c3nncn3C(C)C)n2)cc1-n1cnc(C2CC2)c1
% of control [2]: 82%

Compound: CN(C)C/C=C/C(=O)Nc1ccc(C(=O)N2CCCC(Nc3ncc(Cl)c(-c4c[nH]c5ccccc45)n3)C2)cc1 (stereo unspecified)
% of control [3]: 80%

Compound: CC(C)(O)[C@H](F)CN1Cc2cc(NC(=O)c3cnn4cccnc34)c(N3CCOCC3)cc2C1=O
dTM [4]: 0.2 K

Compound: COc1cc(N(C)c2ccnc3ccc(C(F)(F)F)cc23)cc(OC)c1OC
% binding [5]: 65%

Compound: N#Cc1cccc(-c2c[nH]c3ncnc(N4CCOCC4)c23)c1
% of control [6]: 2.7%
